Several values for one entry are separate records, joined by “and”; a condition that tells them apart may be missing. Equal entries are not always repeated.
System: β2 integrin
Experiment: Adhesion of activated, β2 integrin-expressing HL60 cells to recombinant soluble ICAM-1
Type: cell-based, human
Conditions: for Percent Cells Bound: single well
Experimental: HL60 cells were provided by the American Type Culture Collection (ATCC No. CCL240) and were used between passages 20 to 30 as the control β2 integrin expressing cells, following stimulation for exactly four days in culture media containing dimethylsulfoxide (DMSO). Culture media was comprised of RPMI 1640 (Gibco No. 3201870AJ) supplemented with Penicillin (100 Units/ml)/Streptomycin Sulfate ([…]) (Gibco No. 600-5145AE), L-Glutamine (2 mM) (Gibco No. 320-5030PG), and 10% heat inactivated fetal bovine serum (FBS, Hyclone No. A-1111L). Fetal bovine serum was heat inactivated by incubating in a 56° C. water bath for 30 minutes. Stimulation of the expression of the β2 integrin on HL60 cells was achieved by growing the cells at a density of 2.5×10^5 cells per ml of culture media for four days in the presence of 1.25% DMSO. Following the removal of the DMSO containing media, the β2 integrin on these cells was activated to a high affinity ICAM-1 binding state by the addition of 0.1 nM of (PMA) and PMN Buffer. This buffer was comprised of Hank's balanced salt solution (HBSS) supplemented with 1.2 mM calcium chloride, 1 mM magnesium chloride, 2% glucose, […] HEPES buffer. The ICAM-1 used to measure the adhesion of β2 integrin-bearing cells was obtained from cloning and expression of recombinant, soluble, human ICAM-1 using a baculovirus expression system and standard molecular biology technology. Soluble ICAM-1 was cloned by cleaving ICAM-1 DNA, purchased from R & D Systems, with restriction enzymes to obtain DNA that codes for the soluble (non-membrane) form of the protein. […] The soluble ICAM-1 was purified by passing the media from the ICAM-1 expressing cells over an anti-ICAM-1 antibody-linked sepharose column prepared using a standard immunoaffinity chromatography kit obtained from Pierce Inc.
200 ng of purified, recombinant, soluble ICAM-1 contained in 100 μl of PBS was added to wells of a flat bottom, 96 well EIA/RIA plate (Corning No. 25801), covered with an adhesive backed plate sealer (Linbro No. 76-401-05) and incubated for at least 18 hours at 4° C. to allow ICAM-1 to bind to the assay wells, prior to the addition of the β2 integrin expressing HL60 cells.
HL60 cells were grown in 1.25% DMSO for 4 days and pelleted by centrifugation in a Sorvall RT6000 tabletop centrifuge for 5 minutes, 1000 rotations per minute (rpm), at room temperature. The resulting HL60 cell pellet was resuspended in 50 ml sterile Dulbecco's phosphate buffered saline (dPBS) (Gibco No. 310-4040AJ). The resulting cell pellet was resuspended in 50 ml dPBS and the cell concentration was determined using a hemacytometer. The cells were pelleted as described above and resuspended in PMN Buffer to 15 to 20×10^6 cells/ml. The resuspended HL60 cells were fluorescently labeled by mixing the cells with an equal volume of a 25 μM solution of Calcein AM (Molecular Probes No. C-1430) dye that had been dissolved in PMN Buffer. HL60 cells in the calcein AM solution was incubated in a 37° C. waterbath for 10 minutes with intermittent swirling of the reaction tube. The labeling reaction was stopped by the addition of 13 ml of ice-cold PMN Buffer and the cells were pelleted by centrifugation at 2000 rpm for 5 minutes at 4° C.
The labeled cell pellet was resuspended in 15 ml of ice-cold PMN Buffer and the cell density was determined using a hemacytometer. Cells were then pelleted by centrifugation at 2000 rpm for 5 minutes followed by resuspension in ice-cold PMN Buffer to 2×10^5 cells/40 μl. The labeled cell suspension was placed in the dark at room temperature while asperlin containing solutions were prepared.
Asperlin was solubilized in 100% DMSO at a concentration of 50 mg/ml. This stock was then diluted to 400 μg/ml with PMN Buffer and serial dilutions of the 400 μg/ml asperlin solution were prepared using PMN buffer containing 2% DMSO to obtain solutions ranging from 200 μg/ml to 1.56 μg/ml. […]

Compound: CC(=O)OC1C=CC(=O)OC1C1OC1C [Asperlin, 6,7-Anhydro-2,3,8-trideoxy-D-galacto-oct-2-enoic acidδ-lactone 4-acetate]
- % Inhibition of Cell Adhesion (Asperlin 1.56 μg/ml): -8%
- Average Percent Cells Bound (Asperlin 1.56 μg/ml): 26%
- Bound Cell Fluorescence (Asperlin 1.56 μg/ml): 1551 fluorescence units/well and 1755 fluorescence units/well
- Percent Cells Bound (Asperlin 1.56 μg/ml): 25% and 27%
- % Inhibition of Cell Adhesion (Asperlin 3.125 μg/ml): -36%
- Average Percent Cells Bound (Asperlin 3.125 μg/ml): 33%
- Bound Cell Fluorescence (Asperlin 3.125 μg/ml): 1862 fluorescence units/well and 2077 fluorescence units/well
- Percent Cells Bound (Asperlin 3.125 μg/ml): 32% and 34%
- % Inhibition of Cell Adhesion (Asperlin 6.25 μg/ml): 29%
- Average Percent Cells Bound (Asperlin 6.25 μg/ml): 17%
- Bound Cell Fluorescence (Asperlin 6.25 μg/ml): 1003 fluorescence units/well and 1161 fluorescence units/well
- Percent Cells Bound (Asperlin 6.25 μg/ml): 15% and 19%
- % Inhibition of Cell Adhesion (Asperlin 12.5 μg/ml): 50%
- Average Percent Cells Bound (Asperlin 12.5 μg/ml): 12%
- Bound Cell Fluorescence (Asperlin 12.5 μg/ml): 589 fluorescence units/well and 768 fluorescence units/well
- Percent Cells Bound (Asperlin 12.5 μg/ml): 10% and 13%
- % Inhibition of Cell Adhesion (Asperlin 25 μg/ml): 83%
- Average Percent Cells Bound (Asperlin 25 μg/ml): 4%
- Bound Cell Fluorescence (Asperlin 25 μg/ml): 171 fluorescence units/well and 320 fluorescence units/well
- Percent Cells Bound (Asperlin 25 μg/ml): 2.6% and 5.3%
- % Inhibition of Cell Adhesion (Asperlin 50 μg/ml): 94%
- Average Percent Cells Bound (Asperlin 50 μg/ml): 1.4%
- Bound Cell Fluorescence (Asperlin 50 μg/ml): 82 fluorescence units/well and 77 fluorescence units/well
- Percent Cells Bound (Asperlin 50 μg/ml): 1.4% and 1.3%
- % Inhibition of Cell Adhesion (Asperlin 100 μg/ml): 97.5%
- Average Percent Cells Bound (Asperlin 100 μg/ml): 0.6%
- Bound Cell Fluorescence (Asperlin 100 μg/ml): 45 fluorescence units/well and 31 fluorescence units/well
- Percent Cells Bound (Asperlin 100 μg/ml): 0.7% and 0.5%
- % Inhibition of Cell Adhesion (Asperlin 200 μg/ml): 98%
- Average Percent Cells Bound (Asperlin 200 μg/ml): 0.5%
- Bound Cell Fluorescence (Asperlin 200 μg/ml): 29 fluorescence units/well and 28 fluorescence units/well
- Percent Cells Bound (Asperlin 200 μg/ml): 0.5%
- Effect on adhesion of activated β2 integrin expressing cells to ICAM-1 (in words) (summary of Table I): blocks the adhesion of activated β2 integrin expressing cells to ICAM-1

Reference: US5912266A, “Beta2 integrin cell adhesion molecule inhibitors” (American Home Products Corporation, priority 1997, dated 1999)
